Experimental data: patent US12410141B2, “Anti-cancer spirocyclic-guanidine compounds and uses thereof” (The Johns Hopkins University, priority 2020, dated 2025)
“And” between values parts separate entries of the source, which are not always exact repeats. Equal values may be shown once. One block for each molecule: values may come before it.

Experiments:
[1] = test system: 4T1 cells stably expressing 4UbFL; test: 4UbFL proteasome reporter, 4T1 cells; format: cell-based; conditions: 4 hr treatment, IVIS imager
Protocol: Data are presented as IVIS image (FIG. 8A) and bioluminescence units (FIG. 8B).
4T1 and HCC1806 cells were transfected with 4UbFL plasmid using TransIT2020 transfection reagent for a period of 48 hrs and cells were selected using G418 antibiotic from single colonies. Selected cells were seeded in a 24-well plate (50,000/well) and incubated for 18 h at 37° C. in an incubator. Next, cells were treated with compounds for the period of 4 hr and Luciferin was added (50 uL each well, 7.8 mg/mL) and imaged through an IVIS200 instrument and plotted as a bioluminescent value or fold increase to DMSO control.

MCF7 = test: MTT cytotoxicity assay, MCF7; format: cell-based; conditions: MCF7, breast, 72 hr, read-out: IC50, cell killing
Protocol: (§1) All cell lines were obtained from the American Type Culture Collection (ATCC) and cultured in the specified medium supplemented with 10% fetal bovine serum, 100 IU/mL penicillin, and 100 μg/mL streptomycin at 37° C. in a humidified 5% CO2/95% air incubator. To assess drug cytotoxicity cells were seeded at 2,500 cells/well (10,000 cells/well for MM lines and primary cells) in 100 μL medium in 96-well plate. […]
(§2) It was examined whether the RPN13 inhibitor, RA475, was cytotoxic for cancer cell lines using the MTT assay.

MC38 = test: MTT cytotoxicity assay, MC38; format: cell-based; conditions: MC38, colon, 72 hr, read-out: IC50, cell killing
Protocol: as §1, §2

ES2 = test: MTT cytotoxicity assay, ES2; format: cell-based; conditions: ES2, ovarian, 72 hr, read-out: IC50, cell killing
Protocol: as §1, §2

DLD-1 = test: MTT cytotoxicity assay, DLD-1; format: cell-based; conditions: DLD-1, colon, 72 hr, read-out: IC50, cell killing
Protocol: as §1, §2

HCT116 = test: MTT cytotoxicity assay, HCT116; format: cell-based; conditions: HCT116, colon, 72 hr, read-out: IC50, cell killing
Protocol: as §1, §2

MDA-MB-468 = test: MTT cytotoxicity assay, MDA-MB-468; format: cell-based; conditions: MDA-MB-468, breast, 72 hr, read-out: IC50, cell killing
Protocol: as §1, §2

TC1 = test: MTT cytotoxicity assay, TC1; format: cell-based; conditions: TC1, cervical, 72 hr, read-out: IC50, cell killing
Protocol: as §1, §2

HCC1806 = test: MTT cytotoxicity assay, HCC1806; format: cell-based; conditions: HCC1806, breast, 72 hr, read-out: IC50, cell killing
Protocol: as §1, §2

SKOV3 = test: MTT cytotoxicity assay, SKOV3; format: cell-based; conditions: SKOV3, ovarian, 72 hr, read-out: IC50, cell killing
Protocol: as §1, §2

[2] = test system: high molecular weight polyubiquitinated proteins in OVCAR3 cells; test: Western blot for polyubiquitinated proteins, OVCAR3 cells; format: cell-based; conditions: RA475 0.5 μM and 1 μM
Protocol: Cell lysate (10-20 μg total protein) prepared in MPER (Pierce) from each sample was subjected to SDS-PAGE, transferred to PVDF membranes and analyzed by Western blot using antibodies specific for ubiquitin (P4D1, sc-8017, Santa Cruz), or after stripping antibody for actin (#66009, Protein Tech Group), at the dilutions recommended by the manufacturers, and for secondary antibodies either peroxidase-linked anti-mouse IgG or anti-rabbit IgG (GE Healthcare UK Ltd) were utilized at the recommended dilution. The blots were developed using HyGLO chemiluminescent detection reagent (Denville).
Proteasome inhibitors cause a rapid accumulation of polyUb proteins that is associated with unresolved UPR stress and the induction of apoptosis. Since RA475 is cytotoxic to ovarian cancer cells (Table 1), and induces such a rapid accumulation of polyUb proteins (FIG. 5), it was examined whether RA475 also triggered apoptosis. SKOV3 cells (FIG. 5A) were treated with Up284 (0.5 μM and 1 μM), 1 μM RA190, RA475 (0.5 μM and 1 μM) or vehicle alone (DMSO) and then cultured for 12 hr. OVCAR3 cells (FIG. 5B) were treated with Up284 (0.5 μM), Bortezomib (Bz, 0.25 μM), Ixazomib (Iz, 0.25 μM), RA475 (0.5 μM and 1 μM) or vehicle alone (DMSO). The attached cells were harvested and their lysates were subjected to Western blot analysis, first probed with antibody to ubiquitin and then to actin.

[3] = format: in vitro ADME, murine and human
Protocol: Human and mouse liver microsomes and NADPH regenerating system solutions were purchased from Corning Life Sciences (Tewsbury, MA). Human and mouse K2EDTA was purchased from BioIVT (Westbury, NY). Metabolic studies in liver microsomes (0.125 mg/mL) were conducted in 1× phosphate buffered saline (pH 7.4), NADPH-generating system, and 10 μM of RA475 in a final volume of 250 μl. An incubation mixture with and without NADPH-generating system as well as a neat solution without microsomes and NADPH-generating system were prepared. RA475 was added at the same concentration level into human and mouse EDTA plasma. All reactions were initiated with the addition of RA475. Incubations were performed in glass tubes maintained at 37° C. in a shaker bath. At 0, 30, and 60 minutes, 10 μL aliquots were sampled from the reaction mixture and 0.5 mL of acetonitrile containing internal standard (Up284) was added to each samples. Samples were vortex-mixed and underwent centrifugation for 5 min at 1430×g. […] The column effluent was monitored using an AB Sciex 5500 triple quadrupole mass spectrometer. […] Results were assessed qualitatively comparing the average area ratio of RA475 at 0 hr to area ratio at 30 and 60 minutes for both mouse and human liver microsomes. RA475 was not analyzed for metabolites due to the concentration of RA475 not decreasing. […]

SMILES: Cl.Cl.N#Cc1ccc(/C=C2/C(=O)/C(=C/c3ccc(C#N)cc3)C23CCN(C(=N)N)CC3)cc1 [RA475]
bioluminescence of 4UbFL reporter [1]: dose-dependent increase
IC50 (MCF7): 742 nM
IC50 (MC38): 359 nM
IC50 (ES2): 160 nM
IC50 (DLD-1): 491 nM
IC50 (HCT116): 430 nM
IC50 (MDA-MB-468): 292 nM
IC50 (TC1): 217 nM
IC50 (HCC1806): 113 nM
IC50 (SKOV3): 300 nM and 190 nM
accumulation of high molecular weight polyubiquitinated proteins [2]: triggers the accumulation

non-enzymatic degradation [3]: ~50%
additional degradation by CYP450 activity ([3]; microsomes): 9-13%
SMILES: N#Cc1ccc(/C=C2/C(=O)/C(=C/c3ccc(C#N)cc3)C23CCNCC3)cc1 [Up284, reference compound]
